According to patent US20230364069A1, “METHOD FOR TREATING NON-ALCOHOLIC STEATOHEPATITIS THROUGH CO-ADMINISTRATION OF CURCUMIN DERIVATIVE AND TGF-B RECEPTOR INHIBITOR” (UNIVERSITY INDUSTRY FOUNDATION, YONSEI UNIVERSITY WONJU …, priority 2021, published 2023):

Key:
[1] = test system: LX-2 cells (human hepatic stellate cell lines); assay: Fibrosis markers by Western blotting after TGF-β induction, TGF-β receptor inhibitor; type: cell-based; conditions: 2 ng/ml TGF-β, 10 μM EW-7197, 24 hours, FIG. 3
Method: Cell experiments were performed by using AML12, […], and LX-2 cells, a human hepatic stellate cell.
LX-2 cells were cultured in a culture medium made by adding 1% penicillin streptomycin (anti-anti) and 10% fetal bovine serum (FBS) to a DMEM medium containing high glucose (4500 mg/L D-glucose, L-glutamine, 110 mg/L sodium pyruvate, sodium bicarbonate).
Fibrosis was induced in hepatocytes with TGF-β, a TGF-β receptor inhibitor was administered, and fibrosis was checked.
Specifically, 2 ng/ml of TGF-β was administered to the cells of Example 1-1, and administered or not administered with 10 μM EW-7197 (EW), and cultured for 24 hours. The control group (Con) was not treated with either TGF-β or the sample. […] A protein concentration was measured by BCA assay (Pierce Biotechnology Inc). […] Then, the membranes were washed, briefly incubated with Pico Enhanced Peroxidase Detection (EPD) Western reagent (ELPISBIOTECH. INC.) according to the manufacturer's procedure, and quantified by using an image analyzer (ImageQuant™ LAS 500, GE Healthcare Bio-Sciences AB, Uppsala, Sweden). β-actin was used as an internal control. Densitometry of protein intensity was quantified by using ImageJ (National Institutes of Health). […]

[2] = test system: C57BL/6 mice in which steatohepatitis was induced with a methionine-choline deficient diet; assay: Steatohepatitis animal model (MCD), curcumin 5-8 and high-concentration EW-7197 (40 mg/kg); type: in vivo, mouse; conditions: for fat accumulation in the liver tissues / fibrosis of liver tissues: MCD-fed mice, EW-7197 40 mg/kg, Western blotting, FIGS. 19 to 24; for fat accumulation in the liver tissues: H&E; for fibrosis of liver tissues: Picrosirius red, Masson's trichrome
Method: 8-week-old male C57BL/6 mice weighing 20 to 25 g were purchased from Dae Han Bio Link Co., Ltd. (Chungbuk). Mice were acclimatized for one week under room temperature (25° C.±2° C.) in 60%±5% humidity and a 12-hour light/dark cycle. Mice were fed with a normal diet (Research Diets, RD) and allowed to drink water freely. Afterwards, the mice were randomly divided into five groups according to the fed diets or administered drugs, and the five groups were a group which was fed with a normal diet (Con), a group which was fed with a methionine-choline deficient diet (MCD), a group which was fed with a mixture of an MCD and curcumin 5-8 (1 g of curcumin 5-8 per 1 kg of the diet) (MCD+Cur5-8), a group which was fed with an MCD and to which EW-7197 was orally administered (MCD+EW), and a group which was fed with a mixture of an MCD and curcumin 5-8 and to which EW-7197 was orally administered together (MCD+EW+Cur5-8) (n=10).
EW-7197 was administered directly to the stomach by an oral administration method once every two days at 40 mg/kg. Body weights were measured every week during the experiment period, and liver tissues were harvested after 6 weeks and stored at −80° C. All experiments were performed with the approval of the Institutional Animal Care and Use Committee at Wonju College of Medicine of Yonsei University (YWC-200907-1).
In order to confirm the physiological changes in case of co-administration of a curcumin derivative (Cur5-8) and a TGF-β receptor inhibitor (EW-7197), the liver weights and the concentrations of TG, TC, AST, ALT, and γ-GT in serum were measured. In addition, hydroxyprolin expression was checked as a fibrosis marker in the liver tissues.
Specifically, the weights of the liver tissues harvested in Examples 2-1 and 2-2 were measured before storage.
In Examples 2-1 and 2-2, blood was collected after the experiment was completed, and concentrations of TG, TC, AST, ALT, and γ-GT in serum were measured. In order to measure blood glucose, triglyceride, cholesterol, and AST and ALT concentrations, ELISA kit of Asan Pharm. Co., Ltd. was purchased, and the measuring was performed. γ-GT in the liver was measured by using Mak089 of Sigma-Aldrich, and hydroxyproline was measured by using STA-675 ELISA kit of Cell Biolabs, Inc.
In addition, the hydroxyprolin expression was checked in the liver tissues harvested in Examples 2-1 and 2-2.
In order to check effects of inhibiting fat accumulation in liver tissues and fibrosis in liver tissues in case of co-administration of a curcumin derivative (Cur5-8) and a TGF-β receptor inhibitor (EW-7197), the liver tissues were stained.
The liver tissues harvested in Examples 2-1 and 2-2 were fixed with 10% formaldehyde, the formaldehyde was washed out with running water for more than 12 hours, and then washing was performed with 60% ethanol at a one-hour interval, with 70% ethanol at a one-hour interval, and with 100% ethanol at a one-hour interval. Then, the transparency process in xylene was performed three times for one hour each, and the infiltration process in paraffin was performed twice for one hour each. Then, the paraffin block was cut to a thickness of about […] to obtain slices. After deparaffinization, the slices were stained with hematoxylin and eosin (H&E staining), and blood vessels and lipid droplets in the liver tissues were checked. […]
In addition, H&E-stained liver slices were evaluated by using the NAFLD activity score (NAS) system. […]

renal fibrosis model = conditions: unilateral ureteral obstruction (UUO); previous studies; cited from earlier work

SMILES	protein expressions of α-SMA, Coll, p-SMAD2, and p-SMAD3 increased by TGF-β [1]	fat accumulation in the liver tissues [2]	fibrosis of liver tissues [2]	tissue fibrosis (renal) (renal fibrosis model)	AST (aspartate transaminase) ([2]; MCD-fed C57BL/6 mice, 6 weeks, EW-7197 40 mg/kg oral once every two days, curcumin 5-8 1 g per 1 kg diet) [IU/L]
Cc1cccc(-c2[nH]c(CNc3ccccc3F)nc2-c2ccc3ncnn3c2)n1 [EW-7197, N-(2-fluorophenyl)-5-(6-methyl-2-pyridinyl)-4-[1,2,4]triazolo[1,5-a]pyridin-6-yl-1H-imidazole-2-methanamine]	inhibited	not inhibited	inhibited	suppressing tissue fibrosis	
COc1cc(/C=C/C(=O)c2cccc(NC(=O)C(C)C)c2)ccc1O [Cur5-8, N-{3-[(2E)-3-(4-hydroxy-3-methoxyphenyl)prop-2-enoyl]phenyl}-2-methylpropanamide]		reduced	not improved		119.9 ± 3.80
